Source: US11053409B2, “Compositions for containers and other articles and methods of using same” (priority 2011, dated 2021)

tested on: MCF-7, clone WS8, cells; assay: MCF-7 cell proliferation assay of estrogenic activity; assay type: cell-based, human; settings: logarithmic (base 10) Relative Proliferative Effect relative to 17-beta estradiol; values stated as expected or measured
From the text: The MCF-7 assay uses MCF-7, clone WS8, cells to measure whether and to what extent a substance induces cell proliferation via estrogen receptor (ER)-mediated pathways. The method is described in “Test Method Nomination: MCF-7 Cell Proliferation Assay of Estrogenic Activity” submitted for validation by CertiChem, Inc. to the National Toxicology Program Interagency Center for the Evaluation of Alternative Toxicological Methods (NICEATM) on Jan. 19, 2006 (available online at http://iccvam.niehs.nih.gov/methods/endocrine/endodocs/SubmDoc.pdf).
A brief summary of the method of the aforementioned MCF-7 assay is provided below. MCF-7, clone WS8, cells are maintained at 37° C. in RMPI (or Roswell Park Memorial Institute medium) containing Phenol Red (e.g., GIBCO Catalog Number 11875119) and supplemented with the indicated additives for routine culture. An aliquot of cells maintained at 37° C. are grown for 2 days in phenol-free media containing 5% charcoal stripped fetal bovine serum in a 25 cm^2 tissue culture flask. Using a robotic dispenser such as an epMotion 5070 unit, MCF-7 cells are then seeded at 400 cells per well in 0.2 ml of hormone-free culture medium in Corning 96-well plates. The cells are adapted for 3 days in the hormone-free culture medium prior to adding the chemical to be assayed for estrogenic activity. The media containing the test chemical is replaced daily for 6 days. At the end of the 7-day exposure to the test chemical, the media is removed, the wells are washed once with 0.2 ml of HBSS (Hanks' Balanced Salt Solution), and then assayed to quantify amounts of DNA per well using a micro-plate modification of the Burton diphenylamine (DPA) assay, which is used to calculate the level of cell proliferation.
RPE is the ratio between the EC50 of the test chemical and the EC50 of the control substance 17-beta estradiol times 100, where EC50 is “effective concentration 50%” or half-maximum stimulation concentration for cell proliferation measured as total DNA in the MCF-7 assay.

Compound | Log RPE
Cc1cc(Cc2cc(C)c(O)c(C)c2)cc(C)c1O [Structure 6] | less than −4
Cc1cc(CCc2cc(C)c(O)c(C)c2)cc(C)c1O [Structure 2] | −3
CCc1cc(Cc2cc(CC)cc(C(C)(C)C)c2O)c(O)c(C(C)(C)C)c1 [Structure 15] | less than −4
C[C@]12CC[C@@H]3c4ccc(O)cc4CC[C@H]3[C@@H]1CC[C@@H]2O [17β-estradiol, reference compound] | 2.00
Oc1ccc(Cc2ccc(O)cc2)cc1 [Bisphenol F, reference compound] | −2
Cc1cc(Cc2cc(C)cc(C3(C)CCCCC3)c2O)c(O)c(C2(C)CCCCC2)c1 [Structure 13] | less than −4
O=c1c(-c2ccc(O)cc2)coc2cc(O)cc(O)c12 [Genistein, reference compound] | −2
Cc1cc(C(C)(C)c2cc(C)c(O)c(C)c2)cc(C)c1O [Structure 1] | −2
CC(C)(C)c1cc(Cc2cc(C(C)(C)C)c(O)c(C(C)(C)C)c2)cc(C(C)(C)C)c1O [Structure 8] | less than −4
Oc1ccccc1Cc1ccccc1O [Structure 11] | less than −4
CCCC(c1cc(C(C)(C)C)c(O)cc1C)c1cc(C(C)(C)C)c(O)cc1C [Structure 7] | less than −4
C/C=C(/C(=C/C)c1ccc(O)cc1)c1ccc(O)cc1 [dienestrol, reference compound] | about 2
O=S(=O)(c1ccc(O)cc1)c1ccc(O)cc1 [Bisphenol S, reference compound] | −2
CC(C)(c1ccc(O)cc1)c1ccc(C(C)(C)c2ccc(O)cc2)cc1 [Structure 10] | less than −4
CC(c1ccccc1)(c1ccc(O)cc1)c1ccc(O)cc1 [Structure 4] | −3
CC/C(=C(/CC)c1ccc(O)cc1)c1ccc(O)cc1 [diethylstilbestrol, reference compound] | about 2
CC(c1ccc(O)cc1)(c1ccc(O)cc1)c1ccc(O)cc1 [Structure 3] | −3
Cc1cc(Cc2cc(C)cc(C(C)(C)C)c2O)c(O)c(C(C)(C)C)c1 [Structure 9] | less than −4

target: T1, human estrogen receptor (Homo sapiens, UniProt P03372); assay: suitable in vitro assay whose results are directly correlated to the MCF-7 assay; settings: in vitro assay correlated to MCF-7 assay through common reference compounds
T1 sequence (P03372 1-595): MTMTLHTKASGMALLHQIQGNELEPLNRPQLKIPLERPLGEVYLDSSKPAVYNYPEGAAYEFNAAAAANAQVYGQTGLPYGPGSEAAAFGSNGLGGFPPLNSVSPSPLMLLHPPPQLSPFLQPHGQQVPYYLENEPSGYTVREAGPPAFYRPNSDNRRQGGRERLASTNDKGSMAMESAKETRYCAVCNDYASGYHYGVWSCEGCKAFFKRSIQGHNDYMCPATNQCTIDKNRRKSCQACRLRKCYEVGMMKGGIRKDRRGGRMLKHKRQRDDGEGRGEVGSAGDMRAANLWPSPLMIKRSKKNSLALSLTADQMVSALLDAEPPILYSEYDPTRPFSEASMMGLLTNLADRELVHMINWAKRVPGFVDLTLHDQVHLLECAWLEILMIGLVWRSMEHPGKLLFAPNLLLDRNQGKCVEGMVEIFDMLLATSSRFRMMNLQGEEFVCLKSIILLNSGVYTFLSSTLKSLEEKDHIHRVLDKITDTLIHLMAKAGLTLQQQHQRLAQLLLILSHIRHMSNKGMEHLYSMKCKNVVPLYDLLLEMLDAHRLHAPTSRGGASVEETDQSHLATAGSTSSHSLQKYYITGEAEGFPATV

Compound | estrogenic activity
Cc1cc(Cc2cc(C)c(O)c(C)c2)cc(C)c1O [Structure 6] | do not exhibit appreciable estrogenic activity
CCCC(c1cc(C(C)(C)C)c(O)cc1C)c1cc(C(C)(C)C)c(O)cc1C [Structure 7, 4,4′-butylidenebis(2-t-butyl-5-methylphenol)] | do not exhibit appreciable estrogenic activity
CC(C)(C)c1cc(Cc2cc(C(C)(C)C)c(O)c(C(C)(C)C)c2)cc(C(C)(C)C)c1O [Structure 8] | do not exhibit appreciable estrogenic activity
CC(C)(C)c1cc(O)c(C(C)(C)C)cc1O [Structure 12] | do not exhibit appreciable estrogenic activity
Cc1cc(Cc2cc(C)cc(C(C)(C)C)c2O)c(O)c(C(C)(C)C)c1 [Structure 9] | do not exhibit appreciable estrogenic activity

tested on: not listed separately; assay: suitable genotoxicity assays (e.g., Ames II assay); assay type: cell-based; settings: not given
Procedure: The mixture was stirred for 30 minutes at −10° C. Epichlorohydrin (1.9 liters, 24.2 moles) was added via dropping funnel at −10 to −5° C. The solution was allowed to warm up to room temperature and then was heated for 16 hours at a temperature of from 75 to 82° C. After cooling down to ambient temperature, the mixture was added to cold tap water (12 liters). Ethyl acetate (5 liters) was added to the mixture, which was stirred for 10 minutes and separated. The aqueous layer was extracted again with additional ethyl acetate (3 liters). The combined ethyl acetate extracts were washed twice with brine (2×6 liters), dried over anhydrous sodium sulfate (600 grams), and filtered. The solvent was removed under reduced pressure to give 887 grams of crude product as a purple oil. The crude product was dissolved in toluene (600 milliliters) and passed over a silica gel pad (1.4 kilograms), and eluted with a mixture of toluene and heptane (8 parts toluene to 2 parts heptane). The fractions containing product were combined and evaporated under reduced pressure. The product was mostly the desired diepoxide (756 grams, yellow oil which crystallizes in time), with some monoepoxide present. The purified material (756 grams) was dissolved at 70° C. in 2-propanol (2.3 liters) and then allowed to cool down to room temperature overnight. […]

Compound | genotoxicity
CC(C)(C)c1cc(Cc2cc(C(C)(C)C)c(OCC3CO3)c(C(C)(C)C)c2)cc(C(C)(C)C)c1OCC1CO1 (stereo not shown) [Diglycidyl ether of 4,4′-methylenebis(2,6-di-tert-butylphenol)] | non-genotoxic
CCCC(c1cc(C(C)(C)C)c(OCC2CO2)cc1C)c1cc(C(C)(C)C)c(OCC2CO2)cc1C (stereo not shown) | non-genotoxic
